This is an account of results in patent US9409884B2 (Rigel Pharmaceuticals, Inc., priority 2012, dated 2016).

The first experiment concerns the target AMPK. In words: AMPK activation, enzyme-linked immunosorbent assay. It counts as biochemical. Particulars: Table 8, compounds of Table 1. As to the method:
Compounds of Table 1 were assayed for their ability to activate AMPK using an enzyme-linked immunosorbent assay.
Compounds of Table 2 were assayed for their ability to activate AMPK using an enzyme-linked immunosorbent assay.
Compounds of Table 3 were assayed for their ability to activate AMPK using an enzyme-linked immunosorbent assay.
Compounds of Table 4 were assayed for their ability to activate AMPK using an enzyme-linked immunosorbent assay.
Compounds of Table 5 were assayed for their ability to activate AMPK using an enzyme-linked immunosorbent assay.
Compounds of Table 6 were assayed for their ability to activate AMPK using an enzyme-linked immunosorbent assay.
Compounds of Table 7 were assayed for their ability to activate AMPK using an enzyme-linked immunosorbent assay.
As usually defined, the EC50 is the concentration giving half of the maximal effect. Higher therefore signals a need for much substance. For `N#Cc1ccc(N2CCC(Oc3ccc(C(=O)NC4CCN(Cc5ccncc5)CC4)nc3)CC2)cc1` [Compound 1-1, 5-(1-(4-cyanophenyl)piperidin-4-yloxy)-N-(1-(pyridin-4-ylmethyl)piperidin-4-yl)picolinamide], the EC50 fell in the range of 100 to 500 nM. `N#Cc1ccc(CN2CCC(NC(=O)c3ccc(OC4CCN(c5ccc(C#N)cc5)CC4)cn3)CC2)cc1` [Compound 1-2, N-(1-(4-cyanobenzyl)piperidin-4-yl)-5-(1-(4-cyanophenyl)piperidin-4-yloxy) picolinamide] had an EC50 below 100 nM.

On to `O=C(NC1CCN(Cc2ccncc2)CC1)c1ccc(OC2CCN(c3ccc(C(F)(F)F)cc3)CC2)cn1` [Compound 1-3, N-(1-(pyridin-4-ylmethyl)piperidin-4-yl)-5-(1-(4-(trifluoromethyl)phenyl)piperidin-4-yloxy)picolinamide], for which the EC50 was below 100 nM. The same measure, in the same setting: as for `N#Cc1ccc(CN2CCC(NC(=O)c3ccc(OC4CCN(c5ccc(C(F)(F)F)cc5)CC4)cn3)CC2)cc1` [Compound 1-4, N-(1-(4-cyanobenzyl)piperidin-4-yl)-5-(1-(4-(trifluoromethyl)phenyl)piperidin-4-yloxy) picolinamide], the figure is below 100 nM. Same read-out and setting: as for `O=C(NC1CCN(Cc2cccnc2)CC1)c1ccc(OC2CCN(c3ccc(C(F)(F)F)cc3)CC2)cn1` [Compound 1-5, N-(1-(pyridin-3-ylmethyl)piperidin-4-yl)-5-(1-(4-(trifluoromethyl)phenyl)piperidin-4-yloxy) picolinamide], the figure is below 100 nM; as for `N#Cc1ccc(N2CCC(Oc3ccc(C(=O)NC4CCN(Cc5cccnc5)CC4)nc3)CC2)cc1` [Compound 1-6, N-(1-(pyridin-3-ylmethyl)piperidin-4-yl)-5-(1-(4-cyanophenyl)piperidin-4-yloxy)picolinamide], 100 to 500 nM.

Take `COC(=O)c1ccc(CN2CCC(NC(=O)c3ccc(OC4CCN(c5ccc(C#N)cc5)CC4)cn3)CC2)cc1` [Compound 1-7, methyl 4-((4-(5-(1-(4-cyanophenyl)piperidin-4-yloxy)picolinamido)piperidin-1-yl)methyl)benzoate]: the EC50 was below 100 nM.

As for `COC(=O)c1ccc(CN2CCC(NC(=O)c3ccc(OC4CCN(c5ccc(C(F)(F)F)cc5)CC4)cn3)CC2)cc1` [Compound 1-8, methyl 4-((4-(5-(1-(4-(trifluoromethyl)phenyl)piperidin-4-yloxy)picolinamido)piperidin-1-yl)methyl)benzoate], the concentration giving a half-maximal response (EC50) is below 100 nM. The same measure, in the same setting: then `CC(C)(C)OC(=O)N1CCC(NC(=O)c2ccc(OC3CCN(c4ccc(C(F)(F)F)cc4)CC3)nc2)CC1` [Compound 1-9, tert-butyl 4-(6-(1-(4-(trifluoromethyl)phenyl)piperidin-4-yloxy)nicotinamido) piperidine-1-carboxylate], with 100 to 500 nM; and `O=C(NC1CCN(Cc2ccncc2)CC1)c1ccc(OC2CCN(c3ccc(C(F)(F)F)cc3)CC2)nc1` [Compound 1-10, N-(1-(pyridin-4-ylmethyl)piperidin-4-yl)-6-(1-(4-(trifluoromethyl)phenyl)piperidin-4-yloxy)nicotinamide], with below 100 nM; and `O=C(NC1CCN(Cc2ccc(F)cc2)CC1)c1ccc(OC2CCN(c3ccc(C(F)(F)F)cc3)CC2)nc1` [Compound 1-11, N-(1-(4-fluorobenzyl)piperidin-4-yl)-6-(1-(4-(trifluoromethyl)phenyl)piperidin-4-yloxy)nicotinamide], with below 100 nM.

The molecule `CC(C)(C)OC(=O)N1CCC(NC(=O)c2cc(OC3CCN(c4ccc(C(F)(F)F)cc4)CC3)ccn2)CC1` [Compound 1-12, tert-butyl 4-(4-(1-(4-(trifluoromethyl)phenyl)piperidin-4-yloxy)picolinamido) piperidine-1-carboxylate] came in with an EC50 of 500 to 1000 nM. Still for that read-out and setting: as for `O=C(NC1CCN(Cc2ccncc2)CC1)c1cc(OC2CCN(c3ccc(C(F)(F)F)cc3)CC2)ccn1` [Compound 1-13, N-(1-(pyridin-4-ylmethyl)piperidin-4-yl)-4-(1-(4-(trifluoromethyl)phenyl)piperidin-4-yloxy)picolinamide], the figure is 100 to 500 nM; as for `O=C(NC1CCN(Cc2ccncc2)CC1)c1cncc(OC2CCN(c3ccc(C(F)(F)F)cc3)CC2)c1` [Compound 1-14, N-(1-(pyridin-4-ylmethyl)piperidin-4-yl)-5-(1-(4-(trifluoromethyl)phenyl)piperidin-4-yloxy)nicotinamide], below 100 nM. The same measure, in the same setting: as for `CC(C)(C)OC(=O)N1CCC(NC(=O)c2ccnc(OC3CCN(c4ccc(C(F)(F)F)cc4)CC3)c2)CC1` [Compound 1-15, tert-butyl 4-(2-(1-(4-(trifluoromethyl)phenyl)piperidin-4-yloxy)isonicotinamido) piperidine-1-carboxylate], the figure is 1000 to 5000 nM; as for `O=C(NC1CCN(Cc2ccc(F)cc2)CC1)c1cncc(OC2CCN(c3ccc(C(F)(F)F)cc3)CC2)c1` [Compound 1-16, N-(1-(4-fluorobenzyl)piperidin-4-yl)-5-(1-(4-(trifluoromethyl)phenyl)piperidin-4-yloxy)nicotinamide], below 100 nM. The same measure, in the same setting: as for `N#Cc1ccc(CN2CCC(NC(=O)c3cncc(OC4CCN(c5ccc(C(F)(F)F)cc5)CC4)c3)CC2)cc1` [Compound 1-17, N-(1-(4-cyanobenzyl)piperidin-4-yl)-5-(1-(4-(trifluoromethyl)phenyl)piperidin-4-yloxy)nicotinamide], the figure is below 100 nM. For the molecule `O=C(NC1CCN(Cc2cccnc2)CC1)c1cncc(OC2CCN(c3ccc(C(F)(F)F)cc3)CC2)c1` [Compound 1-18, N-(1-(pyridin-3-ylmethyl)piperidin-4-yl)-5-(1-(4-(trifluoromethyl)phenyl)piperidin-4-yloxy)nicotinamide], the EC50 is below 100 nM. The same measure, in the same setting: as for `O=C(NC1CCNCC1)c1ccnc(OC2CCN(c3ccc(C(F)(F)F)cc3)CC2)c1` [Compound 1-19, N-(piperidin-4-yl)-2-(1-(4-(trifluoromethyl)phenyl)piperidin-4-yloxy) isonicotinamide], the figure is 1000 to 5000 nM.

Staying with this experiment, now noted: Table 14, compounds of Table 7.
As to `N#Cc1ccc(CN2CC[C@@H](NC(=O)c3ccc(C(=O)N4CCC(Oc5ccc(S(=O)(=O)C(F)(F)F)cc5)CC4)nc3)[C@H](F)C2)cc1` (relative stereo) [Compound 7-119, N-((trans)-1-(4-cyanobenzyl)-3-fluoropiperidin-4-yl)-6-(4-(4-(trifluoromethylsulfonyl)phenoxy)piperidine-1-carbonyl)nicotinamide], the EC50 was below 1000 nM.

For the molecule `COc1ccc(C(=O)C2CCN(C(=O)c3ccc(C(=O)N[C@H]4CCN(Cc5ccc(OC(F)(F)F)cc5)C[C@H]4F)cn3)CC2)cc1` (relative stereo) [Compound 7-123, N-((cis)-3-fluoro-1-(4-(trifluoromethoxy)benzyl)piperidin-4-yl)-6-(4-(4-methoxybenzoyl)piperidine-1-carbonyl)nicotinamide], the EC50 is below 1000 nM.

In turn, `COc1ccc(C(=O)C2CCN(C(=O)c3ccc(C(=O)N[C@@H]4CCN(Cc5ccc(C#N)cc5)C[C@H]4F)cn3)CC2)cc1` (single isomer, unassigned) [Compound 7-106] displayed an EC50 below 1000 nM. The same measure, in the same setting: as for `COc1ccc(C(=O)C2CCN(C(=O)c3ccc(C(=O)N[C@H]4CCN(Cc5ccc(C#N)cc5)C[C@@H]4F)cn3)CC2)cc1` (single isomer, unassigned) [Compound 7-107], the figure is below 1000 nM.
